Molecular target: T1, APOL1 (Homo sapiens, UniProt O14791)
T1 sequence (O14791 1-398 S342G/I384M): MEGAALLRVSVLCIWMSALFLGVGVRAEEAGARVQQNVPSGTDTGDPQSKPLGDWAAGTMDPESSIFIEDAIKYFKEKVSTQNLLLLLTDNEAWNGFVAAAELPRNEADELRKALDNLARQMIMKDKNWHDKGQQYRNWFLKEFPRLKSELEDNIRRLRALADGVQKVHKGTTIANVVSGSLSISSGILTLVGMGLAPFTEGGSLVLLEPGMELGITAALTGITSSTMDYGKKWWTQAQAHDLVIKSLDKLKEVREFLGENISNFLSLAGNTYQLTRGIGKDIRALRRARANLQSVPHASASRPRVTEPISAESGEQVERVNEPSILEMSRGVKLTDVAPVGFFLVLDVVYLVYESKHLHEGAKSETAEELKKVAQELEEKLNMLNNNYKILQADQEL
Experiment: Multi-Tox Assay (MultiTox-Fluor Multiplex Cytotoxicity Assay in tet-inducible APOL1 T-REx-HEK293 cells; Table 46 does not say which APOL1 variant G0/G1/G2)
Type: cell-based
Settings: APOL1 variant not given; for IC50: IP50 = IC50 for cell proliferation

Structure (SMILES) | Multi-Tox Assay Max Activity (%) | IC50 [nM] | IC90 [nM]
C[C@H]1C[C@@]2(C[C@@H](c3cn(Cc4ccc(OC5CCOCC5)cc4)nn3)N1)OC[C@@H](O)c1cc(Cl)sc12 [Compound 266] | 100.0 | < 50 | –
C[C@H]1C[C@@]2(C[C@@H](c3cn(CC4CCOCC4)nn3)N1)OC[C@@H](O)c1cc(Cl)sc12 [Compound 267] | 99.0 | 50 to 500 | –
C[C@H]1C[C@@]2(C[C@@H](c3cn(Cc4cccc5c4OCCO5)nn3)N1)OC[C@@H](O)c1cc(Cl)sc12 [Compound 268] | 99.0 | 50 to 500 | –
C[C@H]1C[C@@]2(C[C@@H](c3cn(CC4CCOC4)nn3)N1)OC[C@@H](O)c1cc(Cl)sc12 (stereo partly drawn) [Compound 269] | 99.0 | 50 to 500 | –
COCC1(Cn2cc([C@@H]3C[C@]4(C[C@H](C)N3)OC[C@@H](O)c3cc(Cl)sc34)nn2)CC1 [Compound 270] | 93.0 | 50 to 500 | –
C[C@H]1C[C@@]2(C[C@@H](c3cn(Cc4cccc(CO)c4)nn3)N1)OC[C@@H](O)c1cc(Cl)sc12 [Compound 271] | 97.0 | < 50 | –
Cc1nnc(Cn2cc([C@@H]3C[C@]4(C[C@H](C)N3)OC[C@@H](O)c3cc(Cl)sc34)nn2)[nH]1 [Compound 272] | 95.0 | 50 to 500 | –
C[C@H]1C[C@@]2(C[C@@H](c3cn(CCC4CCCOC4)nn3)N1)OC[C@@H](O)c1cc(Cl)sc12 (stereo partly drawn) [Compound 273] | – | < 50 | –
Cc1ccnn1CCn1cc([C@@H]2C[C@]3(C[C@H](C)N2)OC[C@@H](O)c2cc(Cl)sc23)nn1 [Compound 274] | 97.0 | 50 to 500 | –
C[C@H]1C[C@@]2(C[C@@H](c3cn(Cc4ccc(O)nc4)nn3)N1)OC[C@@H](O)c1cc(Cl)sc12 [Compound 275] | 94.0 | 50 to 500 | –
C[C@H]1C[C@@]2(C[C@@H](c3cn(Cc4cnccn4)nn3)N1)OC[C@@H](O)c1cc(Cl)sc12 [Compound 276] | 100.0 | 50 to 500 | –
Cc1ncc(Cn2cc([C@@H]3C[C@]4(C[C@H](C)N3)OC[C@@H](O)c3cc(Cl)sc34)nn2)cn1 [Compound 277] | 100.0 | < 50 | –
COc1cccc(Cn2cc([C@@H]3C[C@]4(C[C@H](C)N3)OC[C@@H](O)c3cc(Cl)sc34)nn2)c1 [Compound 278] | 100.0 | < 50 | –
C[C@H]1C[C@@]2(C[C@@H](c3cn(Cc4cccc(O)c4)nn3)N1)OC[C@@H](O)c1cc(Cl)sc12 [Compound 279] | 97.0 | 50 to 500 | –
C[C@H]1C[C@@]2(C[C@@H](c3cn(Cc4cccnn4)nn3)N1)OC[C@@H](O)c1cc(Cl)sc12 [Compound 280] | 99.0 | 50 to 500 | –
C[C@H]1C[C@@]2(C[C@@H](c3cn(CC(O)c4ccccc4)nn3)N1)OC[C@@H](O)c1cc(Cl)sc12 (stereo partly drawn) [Compound 281] | 99.0 | 50 to 500 | –
COCCn1cc([C@@H]2C[C@]3(C[C@H](C)N2)OC[C@@H](O)c2cc(Cl)sc23)nn1 [Compound 282] | 99.0 | < 50 | –
C[C@H]1C[C@@]2(C[C@@H](c3cn(CC(F)F)nn3)N1)OC[C@@H](O)c1cc(Cl)sc12 [Compound 283] | – | 50 to 500 | –
CCC(O)Cn1cc([C@@H]2C[C@]3(C[C@H](C)N2)OC[C@@H](O)c2cc(Cl)sc23)nn1 (stereo partly drawn) [Compound 284] | – | 50 to 500 | –
Cc1c(Cn2cc([C@@H]3C[C@]4(C[C@H](C)N3)OC[C@@H](O)c3cc(Cl)sc34)nn2)cnn1C [Compound 285] | 98.0 | 50 to 500 | –
C[C@H]1C[C@@]2(C[C@@H](c3cn(CCC#N)nn3)N1)OC[C@@H](O)c1cc(Cl)sc12 [Compound 286] | 98.0 | < 50 | –
CC(C)N1CC(Cn2cc([C@@H]3C[C@]4(C[C@H](C)N3)OC[C@@H](O)c3cc(Cl)sc34)nn2)CC1=O (stereo partly drawn) [Compound 287] | 96.0 | 50 to 500 | –
C[C@H]1C[C@@]2(C[C@@H](c3cn(CCC(N)=O)nn3)N1)OC[C@@H](O)c1cc(Cl)sc12 [Compound 288] | 97.0 | 50 to 500 | –
C[C@H]1C[C@@]2(C[C@@H](c3cn(CC4(F)CCOCC4)nn3)N1)OC[C@@H](O)c1cc(Cl)sc12 [Compound 289] | – | > 500 | –
CCn1cc(Cn2cc([C@@H]3C[C@]4(C[C@H](C)N3)OC[C@@H](O)c3cc(Cl)sc34)nn2)cn1 [Compound 290] | 99.0 | 50 to 500 | –

Structure (SMILES) | Multi-Tox Assay Max Activity (%) | IC50 [nM] | IC90 [nM]
C[C@H]1C[C@@]2(C[C@@H](c3cn(Cc4cocn4)nn3)N1)OC[C@@H](O)c1cc(Cl)sc12 [Compound 291] | 100.0 | 50 to 500 | –
C[C@H]1C[C@@]2(C[C@@H](c3cn(Cc4ccccn4)nn3)N1)OC[C@@H](O)c1cc(Cl)sc12 [Compound 292] | 99.0 | 50 to 500 | –
COc1cc(F)cc(Cn2cc([C@@H]3C[C@]4(C[C@H](C)N3)OC[C@@H](O)c3cc(Cl)sc34)nn2)c1 [Compound 293] | 100.0 | < 50 | –
Cc1ccc(Cn2cc([C@@H]3C[C@]4(C[C@H](C)N3)OC[C@@H](O)c3cc(Cl)sc34)nn2)nc1 [Compound 294] | 100.0 | 50 to 500 | –
COc1ccc(Cn2cc([C@@H]3C[C@]4(C[C@H](C)N3)OC[C@@H](O)c3cc(Cl)sc34)nn2)cc1 [Compound 295] | 99.0 | < 50 | –
Cc1cc(Cn2cc([C@@H]3C[C@]4(C[C@H](C)N3)OC[C@@H](O)c3cc(Cl)sc34)nn2)ccn1 [Compound 296] | 99.0 | 50 to 500 | –
Cc1nc(Cn2cc([C@@H]3C[C@]4(C[C@H](C)N3)OC[C@@H](O)c3cc(Cl)sc34)nn2)oc1C [Compound 297] | 99.0 | < 50 | –
C[C@H]1C[C@@]2(C[C@@H](c3cn(Cc4ncc(F)cc4F)nn3)N1)OC[C@@H](O)c1cc(Cl)sc12 [Compound 298] | 95.0 | 50 to 500 | –
C[C@@H](CO)CCn1cc([C@@H]2C[C@]3(C[C@H](C)N2)OC[C@@H](O)c2cc(Cl)sc23)nn1 [Compound 299] | 99.0 | < 50 | 50 to 500
C[C@H]1C[C@@]2(C[C@@H](c3cn(C[C@H](O)CO)nn3)N1)OC[C@@H](O)c1cc(Cl)sc12 [Compound 300] | 100.0 | 50 to 500 | 50 to 500
C[C@H]1C[C@@]2(C[C@@H](c3cn(CCOc4ccccc4F)nn3)N1)OC[C@@H](O)c1cc(Cl)sc12 [Compound 301] | 99.0 | < 50 | –
C[C@H]1C[C@@]2(C[C@@H](c3cn(Cc4ccc(O)cc4)nn3)N1)OCC(F)(F)c1cc(Cl)sc12 [Compound 302] | 94.0 | 50 to 500 | –
Cc1cccc(OCC(O)Cn2cc([C@@H]3C[C@]4(C[C@H](C)N3)OCC(F)(F)c3cc(Cl)sc34)nn2)c1 (stereo partly drawn) [Compound 303] | 99.0 | 50 to 500 | –
Cc1ccccc1C(O)Cn1cc([C@@H]2C[C@]3(C[C@H](C)N2)OCC(F)(F)c2cc(Cl)sc23)nn1 (stereo partly drawn) [Compound 304] | 99.0 | 50 to 500 | –
C[C@H]1C[C@@]2(C[C@@H](c3cn(CCc4ccncn4)nn3)N1)OCC(F)(F)c1cc(Cl)sc12 [Compound 305] | 100.0 | < 50 | –
CC(CO)CCn1cc([C@@H]2C[C@]3(C[C@H](C)N2)OCC(F)(F)c2cc(Cl)sc23)nn1 (stereo partly drawn) [Compound 306] | 99.0 | > 500 | –
C[C@H]1C[C@@]2(C[C@@H](c3cn(CC4CCS(=O)(=O)C4)nn3)N1)OCC(F)(F)c1cc(Cl)sc12 (stereo partly drawn) [Compound 307] | 99.0 | < 50 | –
C[C@H]1C[C@@]2(C[C@@H](c3cn(Cc4ccc(OC5CCOCC5)cc4)nn3)N1)OCC(F)(F)c1cc(Cl)sc12 [Compound 308] | 95.0 | 50 to 500 | –
C[C@H]1C[C@@]2(C[C@@H](c3cn(CC4CCOCC4)nn3)N1)OCC(F)(F)c1cc(Cl)sc12 [Compound 309] | 97.0 | 50 to 500 | –
C[C@H]1C[C@@]2(C[C@@H](c3cn(Cc4cccc5c4OCCO5)nn3)N1)OCC(F)(F)c1cc(Cl)sc12 [Compound 310] | 94.0 | 50 to 500 | –
C[C@H]1C[C@@]2(C[C@@H](c3cn(CC4CCOC4)nn3)N1)OCC(F)(F)c1cc(Cl)sc12 (stereo partly drawn) [Compound 311] | 99.0 | < 50 | –
COCC1(Cn2cc([C@@H]3C[C@]4(C[C@H](C)N3)OCC(F)(F)c3cc(Cl)sc34)nn2)CC1 [Compound 312] | 91.0 | > 500 | > 500
C[C@H]1C[C@@]2(C[C@@H](c3cn(Cc4cccc(CO)c4)nn3)N1)OCC(F)(F)c1cc(Cl)sc12 [Compound 313] | 98.0 | 50 to 500 | –
C[C@H]1C[C@@]2(C[C@@H](c3cn(CCC4CCCOC4)nn3)N1)OCC(F)(F)c1cc(Cl)sc12 (stereo partly drawn) [Compound 314] | 99.0 | < 50 | –
Cc1ccnn1CCn1cc([C@@H]2C[C@]3(C[C@H](C)N2)OCC(F)(F)c2cc(Cl)sc23)nn1 [Compound 315] | 98.0 | 50 to 500 | –
